Columns and labels:
[1] = In vivo delivery of heparin by oral administration in rats, APTT (Table 6); design: species or system rat; details: heparin 100 mg/kg
Experimental: In a test tube, 900 mg of carrier were dissolved in 3 mL of propylene glycol, and 0.299 g of sodium heparin was dissolved in 3 mL of water. The solutions were mixed by vortex. Sodium hydroxide (10M) was added to the resulting mixture until a solution was obtained. The pH was then adjusted to 7.4±0.5 with concentrated hydrochloric acid, and the final solution was sonicated at 40° C. for 30 minutes.
A group of fasted, conscious rats were administered the dosing compositions by oral gavage. Blood samples were collected by cardiac puncture following the administration of ketamine (44 mg/kg). Heparin activity was determined by utilizing the activated partial thromboplastim time (APTT) according to the method of Henry, J. B., Clinical Diagnosis and Management by Laboratory Methods; Philadelphia. Pa.; W B Saunders (1979).
Heparin (100 mg/kg) was administered by oral gavage to rats, and heparin activity was determined according to the procedure of Example 44.

[2] = Delivery agent enhancement of rhGH bioavailability, subcutaneous administration in rats (Table 2); assay type: in vivo, rat; details: no delivery agent (0.0 mg/kg), rhGH alone (Comparative Example 16A)
Experimental: The delivery agents were reconstituted with distilled water and adjusted to pH 7.2-8.0 with either aqueous hydrochloric acid or aqueous sodium hydroxide. A stock solution of rhGH was prepared by mixing rhGH, D-mannitol and glycine and dissolving this mixture in 2% glycerol/water. The stock solution was then added to the delivery agent solution. Several delivery agent to active agent ratios were studied.
Male Sprague-Dawley rats weighing 200-250 g were fasted for 24 hours and administered ketamine (44 mg/kg) and chlorpromazine (1.5 mg/kg) 15 minutes prior to dosing. The rats were administered one of the dosing solutions described above by subcutaneous injection, intranasal instillation, or sublingual instillation. Blood samples were collected serially from the tail artery for serum calcium concentration determination or serum rhGH concentrations. The dose-of rhGH administered in these experiments was 0.
Serum rhGH concentrations were quantified by an rhGH enzyme immunoassay test kit.

[3] = In vivo delivery of rhGH in rats (Table 1), serum rhGH by ELISA; design: species or system rat; details: oral, no carrier, rhGH 6 mg/kg
Experimental: Dosing compositions were prepared by mixing the modified amino acids and recombinant human growth hormone (rhGH) as listed in Table 1 below in a phosphate buffer solution at a pH of about 7-8.
Rats were administered the dosing composition by sublingual, oral gavage, intraduodenal administration, or colonic administration. Delivery was evaluated by using an ELISA assay for rhGH from Medix Biotech, Inc. For intracolonic administration, a sample was prepared and dosed to fasted rats at 25 mg/kg of carrier in a buffered solution containing propylene glycol (0-50%) and 1 mg/kg rhGH.

Compound: Heparin [reference compound]
- Mean Peak APTT ([1]; no carrier): 20.7 ± 0.17 s

Compound: rhGH: recombinant human growth hormone, active agent dosed alone as comparative example
- Peak Serum [rhGH] [2]: 4 ± 2 ng/mL
- Mean Peak Serum Levels of rhGH [3]: <10 ± 10 ng/mL

Compound: O=C(O)CCCCCCCNC(=O)/C=C/c1ccccc1F [Compound XII]
- Mean Peak APTT ([1]; carrier 300 mg/kg): 49.53 ± 17.1 s
